Laboratory results published in patent US4645770A, “Agent for treating Parkinson's disease or Parkinsonism” (priority 1985, dated 1987).
Where a name gives a salt, the structure may show the parent alone.

Key:
[1] = Oral acute toxicity (LD50) in the mouse; conditions: in vivo
[2] = test system: denervated post-synaptic DA receptors; assay: Contralateral rotation on the 6-OHDA model; assay type: in vivo, rat
[3] = test system: "naive" rat; assay: Spontaneous motor activity: ambulatory movements (exploratory activity), Opto-Varimex 3; assay type: in vivo; conditions: for Contacts broken (exploratory activity/5 min.): first 5 minutes after injection
Description: (§1) (A) Spontaneous motor activity in the "naive" rat
(§2) Two aspects of motor function were recorded with a known "Opto-Varimex 3":
(a) "ambulatory" movements in the first 5 minutes after s.c. injection of B-HT 920; this phase of locomotor function corresponds to the so-called "exploratory activity" of rats in a new environment;
(§3) The following doses of B-HT 920 were tested: 0.02, 0.2, 2.0 mg/kg s.c.. As a comparison apomorphine was tested in a dosage of 0.1 mg/kg s.c.

[4] = test system: "naive" rat; assay: Spontaneous motor activity: non-ambulatory (stereotypical) movements, Opto-Varimex 3; assay type: in vivo; conditions: for Stereotypical movements (Movements/15 min.): from 55 minutes after injection
Description: as §1, §2
(b) "non-ambulatory" movements which are made up essentially of stereotypical movements, which began to be recorded 45 minutes after the animals had been put into the recording cage (and 55 minutes after s.c. injection).
as §3

[5] = test system: postsynaptic dopamine (DA) receptors; assay: Ipsilateral rotation in the ibotenic acid model; assay type: in vivo, rat
[6] = test system: MPTP Parkinsonism syndrome; assay: MPTP model of Parkinson's disease in Rhesus monkeys; assay type: in vivo
Text: The irreversible neurological syndrome triggered in monkeys and humans by MPTP largely resembles idiopathic Parkinson's disease in its clinical, pathological, biochemical and pharmacological features (Markey et al., Nature 311, 464 (1984)). The reason for this strong similarity is the fact that MPTP selectively destroys the small group of dopaminergic nerve cells in the substantia nigra of the brain which are also destroyed by degenerative processes in naturally occurring Parkinson's disease. There is even some discussion to the effect that idiopathic Parkinson's disease might be caused by MPTP or a similar chemical compound formed in the organism (Snyder, S. H., Nature 311, 514 (1984)). Possibly as a result of the specific metabolism of MPTP, the clinical features of the MPTP Parkinsonism syndrome have been thusfar only been detected in monkeys and man. The MPTP model produced in Rhesus monkeys is therefore exceptionally suitable for testing the effect of anti-Parkinson's drugs.
Voluntary movements of the hindquarters and extremities could not generally be initiated even by extreme and painful stimulation.
After the intramuscular administration of B-HT 920 (50-100 mcg/kg) the first voluntary movements occurred at a time interval of 5 to 10 minutes, followed in the next 10 to 30 minutes by a gradual, extensive normalization of motor function. The animals were capable of taking food. They maintained thier normal posture within their cages and also behaved normally in terms of vigilance and species-specific behavior. […] There was no sedation.

[7] = test system: presynaptic dopaminergic receptors; conditions: Anden et al., 1983; cited from earlier work

C=CCN1CCc2nc(N)sc2CC1 [Compound A, 2-amino-6-allyl-5,6,7,8-tetrahydro-4H-thiazolo[4,5-d]azepine]
LD50 [1]: 455 mg/kg

CN1CCc2cccc3c2[C@H]1Cc1ccc(O)c(O)c1-3 [apomorphine, reference compound]
Contralateral rotations up to 6 hours ([2]; 0.05 mg/kg): 557 Contralateral rotations
Contacts broken (exploratory activity/5 min.) ([3]; 0.1 mg/kg s.c.): 150 /5 min.
Stereotypical movements (Movements/15 min.) ([4]; 4.0 mg/kg s.c.): 650 Movements/15 min.
Ipsilateral rotations/duration of activity ([5]; 0.5 mg/kg s.c., up to 3 hours): 265 Ipsilateral rotations/duration of activity
Ipsilateral rotations/duration of activity ([5]; 1.0 mg/kg s.c., up to 3 hours): 436 Ipsilateral rotations/duration of activity
Ipsilateral rotations/duration of activity ([5]; 10.0 mg/kg s.c., up to 3 hours): 880 Ipsilateral rotations/duration of activity

C=CCN1CCc2nc(N)sc2CC1 [B-HT 920, 2-amino-6-allyl-5,6,7,8-tetrahydro-4H-thiazole-[4,5-d]azepine dihydrochloride]
Contralateral rotations up to 6 hours ([2]; 0.02 mg/kg): 168 Contralateral rotations
Contralateral rotations up to 6 hours ([2]; 0.05 mg/kg): 582 Contralateral rotations
Contralateral rotations up to 6 hours ([2]; 0.5 mg/kg): 1282 Contralateral rotations
Contralateral rotations up to 6 hours ([2]; 1.0 mg/kg): 1442 Contralateral rotations
Activity on denervated receptors ([2]; by contrast with its weak effect on normal DA receptors): exceptionally strong activity on denervated receptors
Contacts broken (exploratory activity/5 min.) ([3]; 0.02 mg/kg s.c.): 380 /5 min.
Contacts broken (exploratory activity/5 min.) ([3]; 0.2 mg/kg s.c.): 150 /5 min.
Inhibitory effect on the exploratory activity ([3]; 0.2 mg/kg, compared with 0.1 mg/kg of apomorphine): almost maximum
Contacts broken (exploratory activity/5 min.) ([3]; 2.0 mg/kg s.c.): 130 /5 min.
Stereotypical movements (Movements/15 min.) ([4]; 0.2 mg/kg s.c.): 370 Movements/15 min.
Stereotypical movements (Movements/15 min.) ([4]; 2.0 mg/kg s.c.): 310 Movements/15 min.
Stereotypical movements (Movements/15 min.) ([4]; 4.0 mg/kg s.c.): 340 Movements/15 min.
Increase in the number of stereotypical movements ([4]; any of the doses tested): did not lead to an increase in the number of stereotypical movements
Ipsilateral rotations/duration of activity ([5]; 0.2 mg/kg s.c., up to 6 hours): 37 Ipsilateral rotations/duration of activity
Ipsilateral rotations/duration of activity ([5]; 0.5 mg/kg s.c., up to 6 hours): 54 Ipsilateral rotations/duration of activity
Ipsilateral rotations/duration of activity ([5]; 1.0 mg/kg s.c., up to 6 hours): 102 Ipsilateral rotations/duration of activity
Ipsilateral rotations/duration of activity ([5]; 2.0 mg/kg s.c., up to 6 hours): 96 Ipsilateral rotations/duration of activity
Activity on the normally sensitive DA receptor (in words) ([5]; compared with apomorphine): only a weak activity
Post-synaptic DA-agonistic activity relative to apomorphine on the normally sensitive DA receptor ([5]; fraction of the activity of apomorphine): about one eighth
Behavior of the animals after administration ([6]; 50-100 mcg/kg intramuscular): The animals were capable of taking food. They maintained thier normal posture within their cages and also behaved normally in terms of vigilance and species-specific behavior
Residual symptoms recorded ([6]; 50-100 mcg/kg intramuscular): an occasional, transient, slight resting tremor and a reduction in brute strength
Sedation ([6]; 50-100 mcg/kg intramuscular): no sedation
Time after which the effect diminished ([6]; 50-100 mcg/kg intramuscular): about 3 hours
Blood supply to the skin ([6]; 50-100 mcg/kg intramuscular, compared with the state before administration): appeared to be increased
Effect of fresh administration on clinical pathological symptoms ([6]; after reversion to the Parkinson's symptoms): improvement or substantial removal of the clinical pathological symptoms
Side effects ([6]; at the dosages used): No side effects were discovered
Agonist effect on presynaptic dopaminergic receptors [7]: agonist with a selective effect on presynaptic dopaminergic receptors
